# Reference: patent US8278345B2, “Inhibitors of glutaminyl cyclase” (Probiodrug AG, priority 2006, dated 2012)
# Molecular target: hQC (Homo sapiens, UniProt Q16769)
# Assay: Inhibitor assay for glutaminyl cyclase activity (fluorometric, H-Gln-βNA / H-Gln-AMC)
# Type: biochemical
# Conditions: compound from preparative synthesis, purified; read-out: IC50 hQC
# In short: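 Ki values came from fitting progress curves to a competitive inhibition model; rapid screens used 4 mM inhibitor with substrate at KM. QC activity was read at 30 °C via auxiliary pyroglutamyl aminopeptidase releasing βNA (0.2 mM H-Gln-βNA, 0.2 M Tris pH 8.0, 20 mM EDTA) or AMC (0.05 M Tris pH 8.0, 5 mM EDTA).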
# Chain of hQC (Q16769 29-361): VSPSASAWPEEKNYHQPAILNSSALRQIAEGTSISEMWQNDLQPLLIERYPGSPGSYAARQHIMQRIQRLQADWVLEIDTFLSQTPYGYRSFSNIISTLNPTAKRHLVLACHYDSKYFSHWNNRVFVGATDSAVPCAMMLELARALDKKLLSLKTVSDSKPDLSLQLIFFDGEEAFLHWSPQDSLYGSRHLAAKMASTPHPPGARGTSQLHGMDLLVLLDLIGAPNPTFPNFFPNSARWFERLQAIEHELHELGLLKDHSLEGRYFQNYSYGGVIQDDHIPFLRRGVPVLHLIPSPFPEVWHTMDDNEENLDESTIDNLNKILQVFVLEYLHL
row,Structure (SMILES),IC50 [µM]
1,"CCCCCC1=C(O)C(=O)N(CCCn2ccnc2)C1c1ccc(OC)cc1 (stereo not drawn) [Compound 193, 3-Hydroxy-1-(3-imidazol-1-yl-propyl)-5-(4-methoxy-phenyl)-4-pentyl-1,5-dihydro-pyrrol-2-one]",1.04
2,"Cc1ccc(C2C(c3ccc(O)cc3)=C(O)C(=O)N2CCCn2ccnc2)cc1 (stereo not drawn) [Compound 148, 3-Hydroxy-4-(4-hydroxy-phenyl)-1-(3-imidazol-1-yl-propyl)-5-p-tolyl-1,5-dihydro-pyrrol-2-one]",0.152
3,"Cc1ccc(C2C(c3c[nH]c4ccccc34)=C(O)C(=O)N2CCCn2ccnc2)cc1 (stereo not drawn) [Compound 114, 3-Hydroxy-1-(3-imidazol-1-yl-propyl)-4-(1H-indol-3-yl)-5-p-tolyl-1,5-dihydro-pyrrol-2-one]",0.266
4,"O=C1C(O)=C(c2ccc(O)cc2)C(C2CCC=CO2)N1CCCn1ccnc1 (stereo not drawn) [Compound 163, 5-(3,4-Dihydro-2H-pyran-2-yl)-3-hydroxy-4-(4-hydroxy-phenyl)-1-(3-imidazol-1-yl-propyl)-1,5-dihydro-pyrrol-2-one]",0.559
5,"O=C1C(O)=C(c2ccc(O)cc2)C(c2ccccc2F)N1CCCn1ccnc1 (stereo not drawn) [Compound 180, 5-(2-Fluoro-phenyl)-3-hydroxy-4-(4-hydroxy-phenyl)-1-(3-imidazol-1-yl-propyl)-1,5-dihydro-pyrrol-2-one]",0.344
6,"Cc1ccc(C2C(c3ccc(O)cc3)=C(O)C(=O)N2CCCn2ccnc2)cc1C (stereo not drawn) [Compound 158, 5-(3,4-Dimethyl-phenyl)-3-hydroxy-4-(4-hydroxy-phenyl)-1-(3-imidazol-1-yl-propyl)-1,5-dihydro-pyrrol-2-one]",0.214

# Same assay, conditions: read-out: IC50
row,Structure (SMILES),IC50 [µM]
1,"O=C1C(O)=C(c2ccccc2)C(c2ncc[nH]2)N1CCCn1ccnc1 (stereo not drawn) [Compound 98, 3-Hydroxy-5-(1H-imidazol-2-yl)-1-(3-imidazol-1-yl-propyl)-4-phenyl-1,5-dihydro-pyrrol-2-one]",1.3
2,"Cc1ccc(C2C(c3cccc(O)c3)=C(O)C(=O)N2CCCn2ccnc2)o1 (stereo not drawn) [Compound 11, 3-Hydroxy-4-(3-hydroxy-phenyl)-1-(3-imidazol-1-yl-propyl)-5-(5-methyl-furan-2-yl)-1,5-dihydro-pyrrol-2-one]",2.2
3,"CC(C)CC(=O)C1=C(O)C(=O)N(c2ccc3[nH]cnc3c2)C1c1cc[nH]n1 (stereo not drawn) [Compound 427, 1-(1H-Benzoimidazol-5-yl)-3-hydroxy-4-(3-methyl-butyryl)-5-(1H-pyrazol-3-yl)-1,5-dihydro-pyrrol-2-one]",7.96
4,"CCCC1C(c2cccc(O)c2)=C(O)C(=O)N1CCCn1ccnc1 (stereo not drawn) [Compound 7, 3-Hydroxy-4-(3-hydroxy-phenyl)-1-(3-imidazol-1-yl-propyl)-5-propyl-1,5-dihydro-pyrrol-2-one]",0.4
5,"CCC1=C(O)C(=O)N(CCCn2ccnc2)C1/C=C/c1ccccc1 (stereo not drawn) [Compound 235, 4-Ethyl-3-hydroxy-1-(3-imidazol-1-yl-propyl)-5-(styryl)-1,5-dihydro-pyrrol-2-one]",5.8
6,"O=C1C(O)=C(c2ccccc2)C(c2c(O)ccc3ccccc23)N1CCCn1ccnc1 (stereo not drawn) [Compound 100, 3-Hydroxy-5-(2-hydroxy-naphthalen-1-yl)-1-(3-imidazol-1-yl-propyl)-4-phenyl-1,5-dihydro-pyrrol-2-one]",0.4
7,"O=C(C1=C(O)C(=O)N(c2ccc3[nH]cnc3c2)C1c1ccc(Cl)c(C(F)(F)F)c1)C1CCCCC1 (stereo not drawn) [Compound 454, 1-(1H-Benzoimidazol-5-yl)-5-(4-chloro-3-trifluoromethyl-phenyl)-4-cyclohexanecarbonyl-3-hydroxy-1,5-dihydro-pyrrol-2-one]",2.56
8,"CC1=C(O)C(=O)N(c2ccc3[nH]cnc3c2)C1c1cc(Cl)ccc1O (stereo not drawn) [Compound 337, 1-(1H-Benzoimidazol-5-yl)-5-(5-chloro-2-hydroxy-phenyl)-3-hydroxy-4-methyl-1,5-dihydro-pyrrol-2-one]",5.8
9,"O=C1C(O)=C(c2ccc(O)cc2)C(c2ccncc2)N1CCCn1ccnc1 (stereo not drawn) [Compound 172, 3-Hydroxy-4-(4-hydroxy-phenyl)-1-(3-imidazol-1-yl-propyl)-5-pyridin-4-yl-1,5-dihydro-pyrrol-2-one]",7.6
10,"CC(C)(C)C(=O)C1=C(O)C(=O)N(c2ccc3[nH]cnc3c2)C1 [Compound 465, 1-(1H-Benzoimidazol-5-yl)-4-(2,2-dimethyl-propionyl)-3-hydroxy-1,5-dihydro-pyrrol-2-one]",6.16
11,"O=C1C(O)=C(c2ccc(O)cc2)C(c2cccc3cccnc23)N1c1ccc2[nH]cnc2c1 (stereo not drawn) [Compound 364, 1-(1H-Benzoimidazol-5-yl)-3-hydroxy-4-(4-hydroxy-phenyl)-5-quinolin-8-yl-1,5-dihydro-pyrrol-2-one]",5.08
12,"CCCCCC1C(c2c[nH]c3ccccc23)=C(O)C(=O)N1CCCn1ccnc1 (stereo not drawn) [Compound 124, 3-Hydroxy-1-(3-imidazol-1-yl-propyl)-4-(1H-indol-3-yl)-5-pentyl-1,5-dihydro-pyrrol-2-one]",0.4
13,"CC1=C(O)C(=O)N(c2ccc3nc[nH]c3c2)C1c1cccc(F)c1F (stereo not drawn) [Compound 259, 1-(1H-Benzoimidazol-5-yl)-5-(2,3-difluoro-phenyl)-3-hydroxy-4-methyl-1,5-dihydro-pyrrol-2-one]",1.3
14,"CC(C)C1=C(O)C(=O)N(CCCn2ccnc2)C1c1ccc2[nH]ccc2c1 (stereo not drawn) [Compound 58, 3-Hydroxy-1-(3-imidazol-1-yl-propyl)-5-(1H-indol-5-yl)-4-isopropyl-1,5-dihydro-pyrrol-2-one]",3.1
15,"CC(C)C1=C(O)C(=O)N(c2ccc3[nH]cnc3c2)C1c1ccsc1 (stereo not drawn) [Compound 348, 1-(1H-Benzoimidazol-5-yl)-3-hydroxy-4-isopropyl-5-thiophen-3-yl-1,5-dihydro-pyrrol-2-one]",4.09
16,"CC(C)(C)C(=O)C1=C(O)C(=O)N(c2ccc3[nH]cnc3c2)C1c1cc(Br)ccc1F (stereo not drawn) [Compound 396, 1-(1H-Benzoimidazol-5-yl)-5-(5-bromo-2-fluoro-phenyl)-4-(2,2-dimethyl-propionyl)-3-hydroxy-1,5-dihydro-pyrrol-2-one]",4.45
17,"CCC1C(C(C)=O)=C(O)C(=O)N1c1ccc2[nH]cnc2c1 (stereo not drawn) [Compound 439, 4-Acetyl-1-(1H-benzoimidazol-5-yl)-5-ethyl-3-hydroxy-1,5-dihydro-pyrrol-2-one]",2.74
18,"O=C1C(O)=C(c2cccc(O)c2)C(c2cc[nH]n2)N1c1ccc2[nH]cnc2c1 (stereo not drawn) [Compound 464, 1-(1H-Benzoimidazol-5-yl)-3-hydroxy-4-(3-hydroxy-phenyl)-5-(1H-pyrazol-3-yl)-1,5-dihydro-pyrrol-2-one]",9.85
19,"CC(C)(C)C(=O)C1=C(O)C(=O)N(c2ccc3[nH]cnc3c2)C1c1ccco1 (stereo not drawn) [Compound 419, 1-(1H-Benzoimidazol-5-yl)-4-(2,2-dimethyl-propionyl)-5-furan-2-yl-3-hydroxy-1,5-dihydro-pyrrol-2-one]",4.09
20,"CCCCCC1=C(O)C(=O)N(c2ccc3[nH]cnc3c2)C1c1cccc(F)c1 (stereo not drawn) [Compound 323, 1-(1H-Benzoimidazol-5-yl)-5-(3-fluoro-phenyl)-3-hydroxy-4-pentyl-1,5-dihydro-pyrrol-2-one]",1.66
21,"CC1=C(O)C(=O)N(c2ccc3[nH]cnc3c2)C1c1ccc(O)cc1O (stereo not drawn) [Compound 265, 1-(1H-Benzoimidazol-5-yl)-5-(2,4-dihydroxy-phenyl)-3-hydroxy-4-methyl-1,5-dihydro-pyrrol-2-one]",3.37
22,"CCCC(=O)C1=C(O)C(=O)N(c2ccc3[nH]cnc3c2)C1c1cc(C(F)(F)F)cc(C(F)(F)F)c1 (stereo not drawn) [Compound 335, 1-(1H-Benzoimidazol-5-yl)-5-(3,5-bis-trifluoromethyl-phenyl)-4-butyryl-3-hydroxy-1,5-dihydro-pyrrol-2-one]",6.79
23,"CC1=C(O)C(=O)N(c2ccc3[nH]cnc3c2)C1c1ccc(Cl)c(C(F)(F)F)c1 (stereo not drawn) [Compound 460, 1-(1H-Benzoimidazol-5-yl)-5-(4-chloro-3-trifluoromethyl-phenyl)-3-hydroxy-4-methyl-1,5-dihydro-pyrrol-2-one]",9.85
24,"Cc1ccc(C2C(C(=O)C3CCCCC3)=C(O)C(=O)N2c2ccc3[nH]cnc3c2)o1 (stereo not drawn) [Compound 273, 1-(1H-Benzoimidazol-5-yl)-4-cyclohexanecarbonyl-3-hydroxy-5-(5-methyl-furan-2-yl)-1,5-dihydro-pyrrol-2-one]",0.58

# The remaining lines, values ahead:
row,IC50 [µM],Structure (SMILES)
1,0.04,"CCCCCC1=C(O)C(=O)N(CCCn2ccnc2)C1c1ccc(OC)cc1 (stereo not drawn) [Compound 193, 3-Hydroxy-1-(3-imidazol-1-yl-propyl)-5-(4-methoxy-phenyl)-4-pentyl-1,5-dihydro-pyrrol-2-one]"
2,0.4,"CCCCCC1=C(O)C(=O)N(CCCn2ccnc2)C1Cc1ccccc1 (stereo not drawn) [Compound 206, 5-Benzyl-3-hydroxy-1-(3-imidazol-1-yl-propyl)-4-pentyl-1,5-dihydro-pyrrol-2-one]"
3,0.04,"Cc1ccc2c(C3C(c4ccccc4)=C(O)C(=O)N3CCCn3ccnc3)c[nH]c2c1 (stereo not drawn) [Compound 95, 3-Hydroxy-1-(3-imidazol-1-yl-propyl)-5-(6-methyl-1H-indol-3-yl)-4-phenyl-1,5-dihydro-pyrrol-2-one]"
4,0.04,"Cc1ccc2c(C3C(c4ccc(O)cc4)=C(O)C(=O)N3CCCn3ccnc3)c[nH]c2c1 (stereo not drawn) [Compound 165, 3-Hydroxy-4-(4-hydroxy-phenyl)-1-(3-imidazol-1-yl-propyl)-5-(6-methyl-1H-indol-3-yl)-1,5-dihydro-pyrrol-2-one]"
5,0.04,"O=C1C(O)=C(c2ccc(O)cc2)C(c2cccc(Cl)c2)N1CCCn1ccnc1 (stereo not drawn) [Compound 179, 5-(3-Chloro-phenyl)-3-hydroxy-4-(4-hydroxy-phenyl)-1-(3-imidazol-1-yl-propyl)-1,5-dihydro-pyrrol-2-one]"
6,0.04,"CCCCCC1=C(O)C(=O)N(CCCn2ccnc2)C1c1ccc2[nH]ccc2c1 (stereo not drawn) [Compound 192, 3-Hydroxy-1-(3-imidazol-1-yl-propyl)-5-(1H-indol-5-yl)-4-pentyl-1,5-dihydro-pyrrol-2-one]"
7,0.04,"Cc1ccc(C2C(c3ccc(O)cc3)=C(O)C(=O)N2CCCn2ccnc2)cc1 (stereo not drawn) [Compound 148, 3-Hydroxy-4-(4-hydroxy-phenyl)-1-(3-imidazol-1-yl-propyl)-5-p-tolyl-1,5-dihydro-pyrrol-2-one]"
8,0.04,"Cc1ccc(C2C(c3c[nH]c4ccccc34)=C(O)C(=O)N2CCCn2ccnc2)cc1 (stereo not drawn) [Compound 114, 3-Hydroxy-1-(3-imidazol-1-yl-propyl)-4-(1H-indol-3-yl)-5-p-tolyl-1,5-dihydro-pyrrol-2-one]"
9,0.04,"CCCCCC1C(c2ccc(O)cc2)=C(O)C(=O)N1CCCn1ccnc1 (stereo not drawn) [Compound 159, 3-Hydroxy-4-(4-hydroxy-phenyl)-1-(3-imidazol-1-yl-propyl)-5-pentyl-1,5-dihydro-pyrrol-2-one]"
10,0.04,"O=C1C(O)=C(c2ccc(O)cc2)C(C2CCC=CO2)N1CCCn1ccnc1 (stereo not drawn) [Compound 163, 5-(3,4-Dihydro-2H-pyran-2-yl)-3-hydroxy-4-(4-hydroxy-phenyl)-1-(3-imidazol-1-yl-propyl)-1,5-dihydro-pyrrol-2-one]"
11,0.04,"O=C1C(O)=C(c2ccc(O)cc2)C(c2ccccc2F)N1CCCn1ccnc1 (stereo not drawn) [Compound 180, 5-(2-Fluoro-phenyl)-3-hydroxy-4-(4-hydroxy-phenyl)-1-(3-imidazol-1-yl-propyl)-1,5-dihydro-pyrrol-2-one]"
12,0.04,"Cc1ccc(C2C(c3ccc(O)cc3)=C(O)C(=O)N2CCCn2ccnc2)cc1C (stereo not drawn) [Compound 158, 5-(3,4-Dimethyl-phenyl)-3-hydroxy-4-(4-hydroxy-phenyl)-1-(3-imidazol-1-yl-propyl)-1,5-dihydro-pyrrol-2-one]"
